Laboratory results taken from ChEMBL document CHEMBL4673244 (J Med Chem, 2020).

Assays:
[1] = in vitro; conditions: human, hepatocytes
[2] = physchem; conditions: buffer, pH 7.4
[3] = in vitro; conditions: dog, MDCK
[4] = in vitro; conditions: human, liver microsomes

Structure (SMILES)	hepatocyte CLint [1] [µL/min/1e6 cells]	logD [2]	Papp [3] [×10⁻⁶ cm/s]	microsomal CLint [4] [µL/min/mg]
C[C@H]1[C@H](O)CN1c1nc(N2C[C@@H]3[C@@H](CC(=O)O)[C@@H]3C2)cc(C(F)(F)F)n1	< 2	0.1	1.4	
C[C@H]1[C@H](O)CN1c1nc(N2C[C@@H]3[C@H](C2)[C@H]3C(=O)O)cc(C(F)(F)F)c1C#N		0.6		
C[C@]1(O)CCN(c2nc(N3C[C@H](O)[C@@H](O)C3)cc(C(F)(F)F)c2C#N)C1		2.2	3.5	< 13

More lines, now with the values ahead:

hepatocyte CLint [1] [µL/min/1e6 cells]	logD [2]	Papp [3] [×10⁻⁶ cm/s]	microsomal CLint [4] [µL/min/mg]	Structure (SMILES)
	3.3			C[C@H]1[C@H](O)CN1c1nc(N2C[C@@H]3[C@@H](CO)[C@@H]3C2)cc(C(F)(F)F)c1C#N
26	1	5.6	< 11	C[C@H]1[C@H](O)CN1c1nc(N2C[C@@H]3[C@@H](CC(=O)O)[C@@H]3C2)cc(C(F)(F)F)c1C#N
